Source: patent publication EP0187551A1, “Pyrazolo[4,3-c]cinnolin-3-one derivatives, their salts, preparation process, use as medicaments, compositions containing them and intermediate products” (ROUSSEL-UCLAF, priority 1985, dated 1986)

Assays:
[1] = molecular target: récepteurs des benzodiazépines; assay: Affinity for benzodiazepine receptors (displacement of 3H diazepam, rat cortex membranes); design: species or system rats; conditions: concentration inhibiting 50 % of specific 3H diazepam (10^-9M) binding, 30 min at 0°C, read-out: CI 50 (the source's name)
Method: 1) Affinité pour les récepteurs des benzodiazépines.
On homogénéise au vingtième (poids/volume) dans le sucrose 0,32M, les cortex prélevés sur des cerveaux de rats mâles pesant 150 g en moyenne.
Après centrifugation de l'homogénat à 1000 g pendant 10 minutes à 0°C, le surnageant est centrifugé à 30 000 g pendant 20 minutes à +4"C. Le culot est mis en suspension dans 20 volumes de tampon Tris Hcl 50mM pH 7,4 et centrifugé à 30 000 g pendant 20 minutes à +4°c. Le nouveau culot obtenu est mis en suspension dans 50 ml de tampon Krebs Tris HCl pH 7,4.
On fait ensuite incuber pendant 30 minutes à 0°C, 2 ml de suspension en présence de ^3H diazepam à la concentration 10-^9M, seul, avec des concentrations croissantes du produit à tester, ou, pour déterminer la fixation non spécifique, avec du diazepam non radioactif à la concentration 10^-6M.
Les suspensions incubées sont filtrées sur Whatman GF/C et les filtres sont lavés par deux fois 5 ml de tampon Krebs Tris HCl pH 7,4 à 0°C.
La radioactivité des filtres est mesurée par scintillation liquide.
L'activité du produit est exprimée en C. I. 50 : concentration inhibant 50 % de la liaison spécifique de ^3H diazepam déterminée graphiquement.

rats [2] = assay: Staircase test (test de l'escalier); assay type: in vivo; conditions: 20 mg/Kg, 1 h after administration, counted for 3 min
Source text: L'appareil et le protocole utilisés ont été décrits par THIEBOT et coll. (Psychopharmacologia (Berlin) 1973, 31, 77).
L'expérimentation est réalisée sur des lots de 15 rats naifs. Les animaux sont déposés individuellement dans l'enceinte 1 heure après l'administration du composé étudié. Le nombre de redressements effectués et le nombre de marches montées sont comptés pendant 3 mn.

souris = assay: Four-plate test (test des 4 plaques), mice; assay type: in vivo; conditions: 1/2 h after administration
Method: (§1) L'appareil (Apelab) et le protocole utilisés ont été décrits par BOISSIER et coll. (European J. Pharmacol. 1968, 4, 145). Les plaques sont reliées à un stimulateur (U. Sachs, Roucaire) qui permet de délivrer des chocs électriques de 120 volts pendant 0,5 s. Les essais sont réalisés sur des lots de 10 souris ou rats 1/2 h après administration per os du composé étudié. Chaque animal est déposé individuellement sur l'appareil. Après 15s d'exploration libre , il est soumis à un choc électrique chaque fois qu'il passe d'une plaque à l'autre, un minimum de 3 secondes étant observé entre deux chocs. Le nombre de chocs délivrés est compté pendant 1 minute. Les résultats obtenus sont comparés à ceux observés chez des animaux témoins par un test de Dunnett.

rats [3] = assay: Four-plate test (test des 4 plaques), rats; assay type: in vivo; conditions: 20 mg/Kg per os, 1/2 h after administration
Method: as §1

**Q.** With `O=c1c2n[nH]c3ccc(Cl)cc3c-2nn1-c1ccccc1` [Exemple 1, 8-chloro-2,5-dihydro-2-phényl 3H-pyrazolo/4,3-c/ cinnolin-3-one] as the compound, how does the IC50 [1] read?
**A.** The IC50 was 1.4 nM.

**Q.** What about the “diminution du nombre de redressements” value (rats [2]) of the same compound?
**A.** The value was 46%.

**Q.** What about the “nombre de marches montées” value (rats [2]) of the same compound?
**A.** Its value is “sans modification notable”.

**Q.** And the “augmentation du nombre de chocs délivrés” value (souris; 20 mg/Kg per os)?
**A.** Its value is 63%.

**Q.** And the “augmentation du nombre de chocs délivrés” value (rats [3])?
**A.** The value was 41%.

**Q.** Which “augmentation du nombre de chocs” value (souris; 50 mg/kg per os) does the source give for `O=c1c2n[nH]c3ccccc3c-2nn1-c1ccccc1` [Exemple 3, 2,5-dihydro-2-phényl 3H-pyrazolo/4,3-c/ cinnolin-3-one] here?
**A.** The value was 50%.

**Q.** Which “augmentation du nombre de chocs” value (souris; 100 mg/kg per os) does the source give for `O=c1c2n[nH]c3ccccc3c-2nn1-c1ccccn1` [Exemple 8, Chlorhydrate du 2,5-dihydro-(2-pyridin-2-yl) 3H-pyrazolo /4,3-c/ cinnolin-3-one] here?
**A.** The value was 50%.
